The values that follow come from US20060122279A1, “Hydrophobic polyamine amides as potent lipopolysaccharide sequestrants” (priority 2004, published 2006).

The format of experiment [1] is binding, E. coli 0111:B4. Particulars: for EC50: E. coli 0111:B4 LPS, Tables 1-3, read-out: ED50 (half-maximal effective displacement of BC probe from LPS). The method, then:
Polymyxin B (PMB), a peptide antibiotic known to bind and neutralize LPS^47 serves as the positive control and reference compound for every plate, enabling the quantitative assessment of repeatability and reproducibility (CV and Z′ factors) for the assay. Robotic liquid handling is performed on a Precision 2000 automated microplate pipetting system, programmed using the Precision Power software, Bio-Tek Instruments Inc., VT, USA. Stock solutions of LPS (5 mg/ml; E. coli 0111:B4; procured from Sigma) and BC (500 μM) are prepared in Tris buffer (pH 7.4, 50 mM). 1 ml each of the LPS and BC stocks are mixed and diluted in Tris buffer to a final volume of 100 ml, yielding final concentrations of 50 μg/ml of LPS and 5 μM BC. 40 μl of this BC:LPS mixture is added to each well of the plate using the Precision 2000. Fluorescence measurements are made at 25° C. on a Fluoromax-3 with Micromax Microwell 384-well plate reader, using DataMax software, Jobin Yvon Inc., N.J. The BC excitation wavelength is 580 nm, emission spectra are taken at 620 nm with both emission and excitation monochromator bandpasses set at 5 nm.

Experiment [2] deals with murine macrophage J774.A1 cells. Put plainly: Nitric oxide (NO) inhibition in LPS-stimulated J774.A1 cells (Griess). Type of experiment: cell-based. The method, then:
Murine monocytes (J774.A1 cells) produce measurable quantities of NO on exposure to LPS and provide a model for the rapid assessment of compounds to neutralize LPS activity. […] In all experiments, Polymyxin B (PMB), a decapeptide antibiotic, known to bind and neutralize LPS,^29;47;48 is used as a reference compound.
Nitric oxide production is measured as total nitrite in murine macrophage J774.A1 cells using the Griess reagent system.^53;54 Murine macrophage J774.A1 cells are grown in RPMI-1640 cell-culture medium containing L-glutamine and sodium bicarbonate and supplemented with 10% fetal bovine serum, 1% L-glutamine-penicillin-streptomycin solution, and 200 μg/ml L-arginine at 37° C. in a 5% CO2 atmosphere. Cells are plated at ˜2×10^6/ml in a volume of 40 μl/well, in 384 well, flat-bottomed, cell culture treated microtiter plates until confluency and subsequently stimulated with 100 ng/ml lipopolysaccharide (LPS). Concurrent to LPS stimulation, serially diluted concentrations of test compounds are added to the cell medium and left to incubate overnight for 16 h. Polymyxin B is used as reference compound in each plate. Positive—(LPS stimulation only) and negative-controls (J774.A1 medium only) are included in each experiment. Nitrite concentrations are measured adding 30 μl of supernatant to equal volumes of Griess reagents (50 μl/well; 0.1% NED solution in ddH2O and 1% sulfanilamide, 5% phosphoric acid solution in ddH2O) and incubating for 15 minutes at room temperature in the dark. Absorbance at 535 nm is measured using a Molecular Devices Spectramax M2 multifunction plate reader (Sunnyvale, Calif.). Nitrite concentrations are interpolated from standard curves obtained from serially diluted sodium nitrite standards.
A general note: Griess reagent forms a coloured azo dye with nitrite.

[3] abbreviates: Mus musculus, J774.A1, 16 h, J774.A1 cells, 100 ng/ml LPS, 16 h, Tables 1-3, read-out: NO IC50.
[4] abbreviates: J774.A1 cells, 100 ng/ml LPS, 16 h, Tables 1-3, read-out: NO IC50.
The mark [5] stands for this setting: Table 7 focused library, NO inhibition, read-out: NO.
Setting [6] is: Mus musculus, J774.A1, 16 h, read-out: NO IC50, J774.A1 cells, 100 ng/ml LPS, 16 h, Tables 1-3.
The mark [7] stands for this setting: Mus musculus, J774.A1, read-out: IC50 (LPS neutralization, NO).

SMILES strings stand for the structures. Several values for one entry are separate records, joined by “and”; a condition that tells them apart may be missing. Equal entries are not always repeated. Where two headings read alike, the source gives them in different places.

On to `CCCCCC/C=C/CCCCCCCCCC(=O)NCCCCC(N)C(=O)NCCCNCCCCNCCCN` (centres unmarked) [Compound 10], for which, in experiment [1], the EC50 was found to be 4.2 µM.

Consider `CCCCCCCCCCCCCCCCC(=O)NCCCCC(N)C(=O)NCCCNCCCCNCCCN` [Compound 11, L-Lys-ε-(heptadecanoyl)-N^1-spermine], for which the EC50 in experiment [1] stood at 6.71 µM. Further, the IC50 in experiment [2] (setting [3]) is 4.49 µM.

Take `CCCCCCCCCCCCCCCCS(=O)(=O)NCCCCC(N)C(=O)NCCCNCCCCNCCCN` [Compound 12, L-Lys-ε-(hexadecanesulfonamide)-N^1-spermine]: in experiment [1], the EC50 was found to be 5.93 µM.

As for `CCCCCCCCCCCCCCCC(=O)NCCCCC(N)C(=O)NCCCNCCCCNCCCN` [Compound 13, D-Lys-ε-(palmitoyl)-N^1-spermine], in experiment [1], the EC50 was 10 µM and 9.94 µM. The figures for the IC50 in experiment [2] (setting [4]) and in experiment [2] (setting [5]) were 2.29 µM and 13 µM, respectively.

As for `CCCC/C=C/CCCCCCCCCC(=O)NCCCCC(N)C(=O)NCCCNCCCCNCCCN` (centres unmarked) [Compound 15], the EC50 in experiment [1] was 3.8 µM and 3.82 µM. In addition, the IC50 in experiment [2] (setting [4]) was 8.85 µM; in experiment [2] (setting [6]), 8.8 µM.

With `CCCCCCCC(=O)NCCCCC(N)C(=O)NCCCNCCCCNCCCN` [Compound 17, L-Lys-ε-(octanoyl)-N^1-spermine], the EC50 in experiment [1] stood at 13 µM. Moreover, the figures for the IC50 in experiment [2] (setting [4]) and in experiment [2] (setting [3]) were 162 µM and 160 µM, respectively.

With `CC(C)C(=O)NCCCCC(N)C(=O)NCCCNCCCCNCCCN` [Compound 18, D-Lys-ε-(isopropoyl)-N^1-spermine], the EC50 in experiment [1] amounted to 299 µM. Moreover, in experiment [2] (setting [3]), the IC50 was greater than 1000 µM.

As to `CC(C)(C)C(=O)NCCCCC(N)C(=O)NCCCNCCCCNCCCN` (centres unmarked) [Compound 19], in experiment [1], the EC50 was 327 µM. The IC50 in experiment [2] (setting [3]) was greater than 1000 µM.

Regarding `NCCCNCCCCNCCCNC(=O)C(N)CCCCNC(=O)CC1CC2CCC1C2` [Compound 20, D-Lys-ε-(2-norbornaneacetoyl)-N^1-spermine], the EC50 in experiment [1] came to 16.2 µM.

For `NCCCNCCCCNCCCNC(=O)C(N)CCCCNC(=O)c1ccc(-c2ccccc2)cc1` [Compound 21, D-Lys-ε-(4-biphenycarboxamide)-N^1-spermine], the EC50 in experiment [1] was 7.9 µM and 7.86 µM. In addition, the IC50 is 124 µM in experiment [2] (setting [4]) and greater than 100 µM in experiment [2] (setting [6]).

For `NCCCNCCCCNCCCNC(=O)C(N)CCCCNC(=O)CCCc1ccc2ccc3cccc4ccc1c2c34` [Compound 22, L-Lys-ε-(4-(1-pyrene)-butanoyl)-N^1-spermine], the EC50 in experiment [1] was 7.1 µM and 7.09 µM. Also, the IC50 in experiment [2] (setting [4]) was 108 µM; in experiment [2] (setting [6]), greater than 100 µM.

Consider `COCCOCCOCC(=O)NCCCCC(N)C(=O)NCCCNCCCCNCCCN` [Compound 24, L-Lys-ε-(2-[2-(2-methoxyethoxy)ethoxy]acetoyl)-N^1-spermine], for which the EC50 in experiment [1] worked out at 572 µM. Besides, the IC50 in experiment [2] (setting [3]) and in experiment [2] (setting [7]) was greater than 1000 µM throughout.

Turning to `COCCOCC(=O)NCCCCC(N)C(=O)NCCCNCCCCNCCCN` [Compound 25, L-Lys-ε-(2-(2-methoxyethoxy)acetoyl)-N^1-spermine], the EC50 in experiment [1] worked out at 495 µM. The IC50 in experiment [2] (setting [3]) and in experiment [2] (setting [7]) was greater than 1000 µM throughout.

As for `CCCC/C=C\CCCCCCCCCCNCCCCC(N)C(=O)NCCCNCCCCNCCCN` (centres unmarked) [Compound 27], the EC50 in experiment [1] was determined as 2.59 µM. Besides, the IC50 in experiment [1] (b47, cis-unsaturated vs saturated alkyl) was determined as 2.6 µM; in experiment [2] (setting [3]), 0.66 µM.

For `CCCCCCCNCCCCC(N)C(=O)NCCCNCCCCNCCCN` (centres unmarked) [Compound 28], in experiment [1], the EC50 is 3.86 µM. Besides, the IC50 in experiment [2] (setting [4]) turned out to be 82.3 µM.

Take `CCCCCCCNCCCCC(N)C(=O)NCCCNCCCCNCCCN` (centres unmarked) [Compound 29]: the EC50 in experiment [1] was 5.99 µM. The IC50 in experiment [2] (setting [4]) was found to be 46.4 µM; in experiment [2] (setting [3]) it was 46 µM.

In the case of `CCCCCCCN(CCCCCCC)CCCC[C@H](N)C(=O)NCCCNCCCCNCCCN` [Compound 30, L-Lys-ε-(bis-(n-heptyl))-N^1-spermine], in experiment [1], the EC50 is 2.14 µM. The IC50 in experiment [2] (setting [4]) is 38.8 µM.

In the case of `CCCCCCNCCCCC(N)C(=O)NCCCNCCCCNCCCN` (centres unmarked) [Compound 31], the EC50 in experiment [1] stood at 7.13 µM. The IC50 in experiment [2] (setting [3]) is greater than 1000 µM.

Consider `CC(C)=CCC[C@H](C)CCNCCCCC(N)C(=O)NCCCNCCCCNCCCN` (some centres unmarked) [Compound 32], for which the EC50 in experiment [1] was 9.6 µM and 9.55 µM. Besides, the IC50 in experiment [2] (setting [3]) was greater than 1000 µM.

For `CC(C)(C)CCNCCCCC(N)C(=O)NCCCNCCCCNCCCN` (centres unmarked) [Compound 33], the EC50 in experiment [1] was 12.1 µM. Also, in experiment [2] (setting [3]), the IC50 was greater than 1000 µM.

Consider `CC(C)(C)CCNCCCCC(N)C(=O)NCCCNCCCCNCCCN` [Compound 34, D-Lys-ε-(3,3-dimethyl-1-butyl)-N^1-spermine], for which the EC50 in experiment [1] came out at 10.9 µM. Further, the IC50 in experiment [2] (setting [4]) was 838 µM.

With `CC(C)CNCCCCC(N)C(=O)NCCCNCCCCNCCCN` [Compound 35, D-Lys-ε-(3-methylpropyl)-N^1-spermine], the EC50 in experiment [1] was determined as 101 µM. The IC50 in experiment [2] (setting [3]) was 72.9 µM.

In the case of `NCCCNCCCCNCCCNC(=O)C(N)CCCCNCC1CCCCC1` (centres unmarked) [Compound 37], the EC50 in experiment [1] is 9.8 µM and 9.84 µM. In addition, the IC50 in experiment [2] (setting [3]) was greater than 1000 µM.

Take `NCCCNCCCCNCCCNC(=O)C(N)CCCCN(CC1CCCCC1)CC1CCCCC1` [Compound 38, L-Lys-ε-(bis-(cyclohexyl))-N^1-spermine]: the EC50 in experiment [1] was 4 µM and 4.04 µM. Further, the IC50 in experiment [2] (setting [4]) is greater than 1000 µM.

In the case of `NCCCNCCCCNCCCNC(=O)C(N)CCCCNCc1ccc(-c2ccccc2)cc1` [Compound 39, D-Lys-ε-(4-phenylbenzyl)-N^1-spermine], the EC50 in experiment [1] was 3.7 µM and 3.71 µM. For the same compound, the IC50 in experiment [2] (setting [4]) was 105 µM; in experiment [2] (setting [6]) it was greater than 100 µM.

On to `CCCCCCCCCCCCCC(=O)NCCCCC(N)C(=O)NCCCNCCCCNCCCN` (centres unmarked) [Compound 41], for which the IC50 in experiment [2] (setting [5]) came out at 26 µM.

For the compound `CCCCCCCCCCCCCCCCCCCC(=O)NCCCCC(N)C(=O)NCCCNCCCCNCCCN` (centres unmarked) [Compound 42], the IC50 in experiment [2] (setting [5]) came out at 5.77 µM.

In the case of `CCCCCCCCCCCCCCNCCCCC(N)C(=O)NCCCNCCCCNCCCN` (centres unmarked) [Compound 43], the IC50 in experiment [2] (setting [5]) is 6.17 µM.

For the compound `CCCCCCCCCCCCCCCCCCCCNCCCCC(N)C(=O)NCCCNCCCCNCCCN` (centres unmarked) [Compound 45], the IC50 in experiment [2] (setting [5]) was 3.67 µM.

As to `CCCCCCCCCCCCCCNCCCCC(N)C(=O)NCCCNCCCCNCCCN` (centres unmarked) [Compound 46], the IC50 in experiment [2] (setting [5]) is 5.34 µM.

On to `CCCCCCCCCCCCCCCCNCCCCC(N)C(=O)NCCCNCCCCNCCCN` (centres unmarked) [Compound 47], for which, in experiment [2] (setting [5]), the IC50 is 6.89 µM.

`CCCCCCCCCCCCCCCCCCCCNCCCCC(N)C(=O)NCCCNCCCCNCCCN` (centres unmarked) [Compound 49]: in experiment [2] (setting [5]), the IC50 came out at 2.2 µM.

As to `CCCCCCCCCCCCCC(=O)NCCCCCC(=O)NCCCNCCCCNCCCN` [Compound 50], the IC50 in experiment [2] (setting [5]) came out at 48.4 µM.

With `CCCCCCCCCCCCCCCCCC(=O)NCCCCCC(=O)NCCCNCCCCNCCCN` [Compound 52], the IC50 in experiment [2] (setting [5]) is 29.6 µM.

`CCCCCCCCCCCCCCCCCCCC(=O)NCCCCCC(=O)NCCCNCCCCNCCCN` [Compound 53]: the IC50 in experiment [2] (setting [5]) was 26.6 µM.

On to `CCCCCCCCCCCCCCNCCCCCC(=O)NCCCNCCCCNCCCN` [Compound 54], for which the IC50 in experiment [2] (setting [5]) was 9.48 µM.

On to `CCCCCCCCCCCCCCCCNCCCCCC(=O)NCCCNCCCCNCCCN` [Compound 55], for which the IC50 in experiment [2] (setting [5]) was determined as 6.12 µM.

For the compound `CCCCCCCCCCCCCCCCCCNCCCCCC(=O)NCCCNCCCCNCCCN` [Compound 56], the IC50 in experiment [2] (setting [5]) is 5.34 µM.

As to `CCCCCCCCCCCCCCCCCCCCNCCCCCC(=O)NCCCNCCCCNCCCN` [Compound 57], in experiment [2] (setting [5]), the IC50 amounted to 5.02 µM.
